Blank lines part the entries; values can stand above or below the molecule they belong to. Calls of active or inactive are those of the source.
Legend:
Troponin, cardiac muscle = Troponin, cardiac muscle (Homo sapiens, UniProt P19429+P45379+P63316); assay: Fluorescence-based biochemical high throughput dose response assay for activators of the calcium sensitivity of cardiac Regulated Thin Filaments (RTF). [Related pubchem assays (depositor defined):AID493008, AID493018, AID504382, AID504383]; assay type: protein-complex assay
Exodeoxyribonuclease V = target: T1, Exodeoxyribonuclease V (Escherichia coli (strain K12), UniProt P04993+P07648+P08394); assay: RecBCD inhibition via phage-restricted bacterial growth – absorbance, V66 E. coli, mutant T4 phage, counter-screen for AddAB inhibitor project, dose response (AID 492957); assay type: functional, cell-based, Escherichia coli str. K-12 substr. MG1655
T1 sequence (P04993 whole entry): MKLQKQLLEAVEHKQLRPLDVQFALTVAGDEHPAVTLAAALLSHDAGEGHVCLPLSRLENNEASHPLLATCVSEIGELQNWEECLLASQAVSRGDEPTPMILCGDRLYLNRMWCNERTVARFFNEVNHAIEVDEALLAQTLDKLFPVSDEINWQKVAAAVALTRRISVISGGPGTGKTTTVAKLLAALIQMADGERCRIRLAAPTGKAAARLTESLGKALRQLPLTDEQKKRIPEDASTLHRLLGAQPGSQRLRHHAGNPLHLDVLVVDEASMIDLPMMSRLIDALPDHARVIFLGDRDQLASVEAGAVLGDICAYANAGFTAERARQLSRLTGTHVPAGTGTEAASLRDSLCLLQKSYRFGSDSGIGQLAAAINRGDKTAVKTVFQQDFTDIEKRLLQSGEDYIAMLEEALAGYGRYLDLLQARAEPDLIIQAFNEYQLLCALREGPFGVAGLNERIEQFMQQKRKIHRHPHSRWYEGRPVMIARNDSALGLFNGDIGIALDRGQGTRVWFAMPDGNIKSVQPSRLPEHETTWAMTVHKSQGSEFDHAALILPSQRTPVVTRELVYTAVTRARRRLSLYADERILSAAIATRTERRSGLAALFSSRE
T1 sequence (P07648 whole entry): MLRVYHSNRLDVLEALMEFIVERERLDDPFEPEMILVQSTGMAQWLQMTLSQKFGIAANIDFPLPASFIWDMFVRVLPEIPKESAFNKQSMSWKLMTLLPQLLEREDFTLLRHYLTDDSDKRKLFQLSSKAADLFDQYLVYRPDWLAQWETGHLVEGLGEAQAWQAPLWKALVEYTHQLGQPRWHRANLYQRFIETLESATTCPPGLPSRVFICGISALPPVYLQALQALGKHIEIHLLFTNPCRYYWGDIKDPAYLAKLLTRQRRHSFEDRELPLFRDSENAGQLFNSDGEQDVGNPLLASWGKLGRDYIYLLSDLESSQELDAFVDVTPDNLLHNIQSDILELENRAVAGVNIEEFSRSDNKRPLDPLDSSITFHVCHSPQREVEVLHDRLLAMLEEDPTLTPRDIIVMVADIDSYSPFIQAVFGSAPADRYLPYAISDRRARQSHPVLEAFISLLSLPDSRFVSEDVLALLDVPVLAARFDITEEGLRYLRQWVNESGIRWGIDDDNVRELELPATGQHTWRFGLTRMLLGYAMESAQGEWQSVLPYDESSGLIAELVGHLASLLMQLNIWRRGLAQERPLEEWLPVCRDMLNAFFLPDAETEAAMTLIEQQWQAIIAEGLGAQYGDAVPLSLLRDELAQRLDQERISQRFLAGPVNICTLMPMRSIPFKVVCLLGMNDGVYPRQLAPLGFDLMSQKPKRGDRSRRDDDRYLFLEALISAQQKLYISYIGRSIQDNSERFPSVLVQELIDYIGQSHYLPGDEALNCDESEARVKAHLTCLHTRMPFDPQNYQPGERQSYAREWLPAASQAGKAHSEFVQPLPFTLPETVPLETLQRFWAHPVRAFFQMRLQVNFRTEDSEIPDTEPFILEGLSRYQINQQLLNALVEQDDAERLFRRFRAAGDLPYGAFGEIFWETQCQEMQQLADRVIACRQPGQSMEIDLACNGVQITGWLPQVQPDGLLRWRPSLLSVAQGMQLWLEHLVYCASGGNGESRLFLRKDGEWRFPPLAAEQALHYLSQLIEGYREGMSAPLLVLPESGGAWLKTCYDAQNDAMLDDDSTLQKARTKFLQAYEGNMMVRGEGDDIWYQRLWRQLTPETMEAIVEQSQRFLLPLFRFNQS
T1 sequence (P08394 whole entry): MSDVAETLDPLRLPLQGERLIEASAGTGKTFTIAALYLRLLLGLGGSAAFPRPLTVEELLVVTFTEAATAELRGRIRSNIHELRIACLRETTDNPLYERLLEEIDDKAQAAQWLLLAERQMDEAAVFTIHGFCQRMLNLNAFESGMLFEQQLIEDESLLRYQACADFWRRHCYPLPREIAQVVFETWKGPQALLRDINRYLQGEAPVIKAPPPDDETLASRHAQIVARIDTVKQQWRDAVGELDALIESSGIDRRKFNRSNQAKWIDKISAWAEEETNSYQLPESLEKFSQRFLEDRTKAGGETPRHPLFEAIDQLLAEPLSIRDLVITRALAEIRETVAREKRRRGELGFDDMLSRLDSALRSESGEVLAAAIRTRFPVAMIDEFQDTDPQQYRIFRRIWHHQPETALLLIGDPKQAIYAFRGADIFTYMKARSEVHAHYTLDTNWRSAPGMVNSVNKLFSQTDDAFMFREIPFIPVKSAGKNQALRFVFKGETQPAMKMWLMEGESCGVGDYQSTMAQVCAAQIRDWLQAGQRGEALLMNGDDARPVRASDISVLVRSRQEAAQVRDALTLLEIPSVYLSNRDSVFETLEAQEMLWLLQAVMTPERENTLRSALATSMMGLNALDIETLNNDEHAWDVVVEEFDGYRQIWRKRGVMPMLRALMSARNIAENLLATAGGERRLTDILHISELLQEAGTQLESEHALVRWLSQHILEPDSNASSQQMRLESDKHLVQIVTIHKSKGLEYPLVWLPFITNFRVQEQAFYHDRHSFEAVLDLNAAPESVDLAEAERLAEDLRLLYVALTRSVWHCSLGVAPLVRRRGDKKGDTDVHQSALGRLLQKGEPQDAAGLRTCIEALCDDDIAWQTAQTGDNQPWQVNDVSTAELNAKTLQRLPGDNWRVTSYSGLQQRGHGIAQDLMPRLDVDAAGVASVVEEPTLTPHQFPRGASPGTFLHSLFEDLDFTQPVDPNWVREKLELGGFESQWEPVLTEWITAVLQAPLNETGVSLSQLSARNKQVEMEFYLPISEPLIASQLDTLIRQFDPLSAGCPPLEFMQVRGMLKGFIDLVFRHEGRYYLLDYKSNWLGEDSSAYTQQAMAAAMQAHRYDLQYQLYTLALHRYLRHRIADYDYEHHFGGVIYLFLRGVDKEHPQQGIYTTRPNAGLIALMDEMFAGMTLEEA

[1] = Counterscreen for AddAB inhibitors: absorbance-based bacterial cell-based high throughput dose response assay for inhibitors of bacterial viability. [Related pubchem assays (depositor defined):AID435030, AID449728, AID449731, AID488942, AID488955, AID488956]; assay type: functional
[2] = target: T2, Heat shock factor protein 1 (Mus musculus, UniProt P38532); assay: decrease of HSF1-responsive luciferase luminescence – cell-based, NIH3T3, dose retest, confirmation (AID 2382); assay type: functional;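 further: NIH3T3 fibroblasts with HSF1-driven luciferase reporter stressed by proteasome inhibitor MG132; luminescence from HSF1-driven luciferase expression after 8 hours of MG132 stress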
T2 sequence (P38532 whole entry): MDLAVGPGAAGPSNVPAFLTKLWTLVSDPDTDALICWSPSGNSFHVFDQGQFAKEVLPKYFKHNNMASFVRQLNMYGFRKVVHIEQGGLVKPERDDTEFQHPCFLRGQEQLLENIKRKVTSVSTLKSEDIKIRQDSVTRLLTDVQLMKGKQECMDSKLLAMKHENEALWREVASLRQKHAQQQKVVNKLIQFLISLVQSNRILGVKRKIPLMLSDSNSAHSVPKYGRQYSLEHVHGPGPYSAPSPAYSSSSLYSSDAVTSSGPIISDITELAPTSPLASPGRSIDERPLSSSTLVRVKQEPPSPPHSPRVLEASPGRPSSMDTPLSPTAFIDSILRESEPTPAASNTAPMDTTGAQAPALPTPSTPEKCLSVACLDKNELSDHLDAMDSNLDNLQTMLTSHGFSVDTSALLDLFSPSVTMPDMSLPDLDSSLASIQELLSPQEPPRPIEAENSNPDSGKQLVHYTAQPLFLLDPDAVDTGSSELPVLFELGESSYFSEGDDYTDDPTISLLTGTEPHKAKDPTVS

[3] = reduction of Shn3 3'UTR-driven luciferase in osteoblasts – cell-based, Clone20 osteoblasts, firefly luciferase, cherry-picked, dose response (AID 624132); assay type: functional;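 further: firefly luciferase luminescence from reporter carrying the Shn3 3'UTR in osteoblasts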
[4] = loss of viability in HepG2 cells – cell-based, CellTiter-Glo, cherry-picked, cytotoxicity control for Shn3 inhibitor project, dose response (AID 624134); assay type: functional
[5] = non-specific 3'UTR reporter inhibition in Clone20-Shn3RL – cell-based, Renilla luciferase, cherry-picked, counter-screen for Shn3 inhibitor project, dose response (AID 624133); assay type: functional
[6] = target: T3, DNA repair protein RAD52 homolog (Homo sapiens, UniProt P43351); assay type: functional, biochemical
T3 sequence (P43351 whole entry): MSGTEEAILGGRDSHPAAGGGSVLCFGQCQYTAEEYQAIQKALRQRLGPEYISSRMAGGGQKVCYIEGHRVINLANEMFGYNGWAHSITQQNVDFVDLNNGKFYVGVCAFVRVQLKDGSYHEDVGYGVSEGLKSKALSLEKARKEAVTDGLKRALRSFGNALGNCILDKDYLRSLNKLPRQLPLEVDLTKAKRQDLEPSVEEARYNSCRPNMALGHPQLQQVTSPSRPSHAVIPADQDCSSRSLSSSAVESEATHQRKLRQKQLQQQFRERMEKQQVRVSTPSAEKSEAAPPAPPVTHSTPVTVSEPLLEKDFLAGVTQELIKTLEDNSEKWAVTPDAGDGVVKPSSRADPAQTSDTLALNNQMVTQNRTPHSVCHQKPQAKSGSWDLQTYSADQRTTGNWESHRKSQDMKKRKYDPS

HEK293 [7] = assay: cells; conditions: Homo sapiens
HEK293 [8] = assay: cells; conditions: Homo sapiens; remark: listed apart in the source

- EC50 (Troponin, cardiac muscle): > 71.4 µM (inactive)
SMILES: Cc1ccc(C(=O)Nc2ccc3c(c2)ncn3C)cc1

SMILES: CC(=O)c1ccc(NC(S)=NC(NC(=O)c2ccco2)C(Cl)(Cl)Cl)cc1 (stereo unspecified)
- IC50 (Exodeoxyribonuclease V): > 119 µM (inactive)
- IC50 [1]: > 119 µM (inactive)

- EC50 [2]: > 195 µM (not active)
- EC50 (Troponin, cardiac muscle): > 71.5 µM (inactive)
SMILES: COc1ccc(CNC(=O)c2sc(=S)n(-c3ccccc3)c2N)cc1

SMILES: CN(C)CCNC(=O)c1cccc2nc3cccc(F)c3nc12
- AC50 [3]: 13.7 µM (active)
- AC50 [4]: 4.69 µM (active)
- AC50 [5]: 23.8 µM (active)
- AC50 [6]: 4.63 µM (active)
- EC50 (HEK293 [7]): > 59.6 µM (inactive)
- EC50 (HEK293 [8]): > 59.6 µM (inactive)

From ChEMBL document CHEMBL1201862, “PubChem BioAssay data set” (2004)
